PubChem BioAssay (NCI)
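Interpolation was linear, between the two tested concentrations surrounding the appropriate level; five concentrations were tested over 48 hours in 96-well plates. TGI marks complete inhibition of growth.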

Assays:
Test in all cases: DTP human tumour cell line panel, 48 h
A549 NSCLC = test system: A549 NSCLC
CAKI-1 renal = test system: CAKI-1 renal
LOX IMVI melanoma = test system: LOX IMVI melanoma
MDA-MB-231 breast = test system: MDA-MB-231 breast
MDA-MB-435 = test system: MDA-MB-435
RXF 393 renal = test system: RXF 393 renal
SF-295 CNS = test system: SF-295 CNS
NCI-H522 lung = test system: NCI-H522 lung
U251 CNS = test system: U251 CNS
UO-31 renal = test system: UO-31 renal
NCI/ADR-RES ovarian = test system: NCI/ADR-RES ovarian

SMILES	TGI (A549 NSCLC) [µM]	TGI (CAKI-1 renal) [µM]	TGI (LOX IMVI melanoma) [µM]	TGI (MDA-MB-231 breast) [µM]	TGI (MDA-MB-435) [µM]	TGI (RXF 393 renal) [µM]	TGI (SF-295 CNS) [µM]	TGI (NCI-H522 lung) [µM]	TGI (U251 CNS) [µM]	TGI (UO-31 renal) [µM]	TGI (NCI/ADR-RES ovarian) [µM]
CCSc1[nH]c(NC(=NC(C)C)NC(=O)c2ccccc2)c(C(N)=O)c1C(N)=O	> 10	> 10	> 10	> 10	> 10	> 10	> 10	–	–	–	–
O=P(Nc1cccc(Cl)c1)(Oc1ccccc1)N(CCCl)CCCl (centres undefined)	29.2	31.5	–	–	–	–	28.1	> 100	28.3	> 100	–
Cc1cc(N)c2cc(NC(=O)Nc3ccc4nc(C)cc(N)c4c3)ccc2n1	> 100	> 100	> 100	> 100	> 100	–	> 100	> 100	> 100	> 100	> 100
CC(C)(/C=N/O)/[N+]([O-])=C/c1ccccc1	> 100	> 100	> 100	> 100	> 100	> 100	> 100	–	> 100	> 100	> 100
C[C@]12CCC(=O)C=C1CC[C@@H]1C2CC[C@@]2(C)C1CC[C@@H]2OC(=O)C12OC1CCC2=O (some centres undefined)	54.6	–	31.1	–	–	16.8	34.7	23.1	29.1	30.3	–
COc1ccc(N2C(=O)C(=O)C3(CCCCC3)C2=O)c(OC)c1OC	> 100	> 100	> 100	–	> 100	> 100	> 100	> 100	> 100	> 100	> 100
COc1ccc(Oc2nc3c(N)cc(C(F)(F)F)cc3nc2-c2ccccc2)cc1	–	44	53.6	> 100	> 100	24.9	41.2	–	> 100	> 100	> 100
CCC1OC2C(CC=C(C)C)=C3OC(C)(O)C(C)(CC)C(=O)C3=C3OC(=O)C=C1C32 (centres undefined)	> 100	> 100	27.3	41.1	> 100	–	> 100	–	> 100	69.6	95.8
O=c1cc(NNc2cccc(F)c2)[nH]c(=S)[nH]1	> 100	–	> 100	> 100	> 100	–	> 100	–	> 100	> 100	> 100
CCOC(=O)[C@@]12NN=N[C@@H]1[C@H]1CO[C@H](c3ccccc3)N1C2=O	> 100	24.8	4.92	30.6	35.6	13.9	27.5	13.1	18.4	–	75.9
COC(=O)CC1NC(=O)C1C(C)(OC)OC (centres undefined)	> 100	–	> 100	–	–	> 100	> 100	–	> 100	> 100	–
COc1cccc(/C=N/NC(=O)CN(C)C)c1O	> 100	> 100	> 100	–	> 100	> 100	> 100	> 100	> 100	> 100	> 100
CCOC(=O)CCC(C(=O)OCC)n1nnc2ccc(Nc3c(C)[n+]([O-])c4cc(F)c(OCC)cc4[n+]3[O-])cc21 (centres undefined)	> 100	> 100	> 100	–	> 100	> 100	> 100	> 100	> 100	> 100	> 100
COC(=O)C1CCCN1C(=O)OC(C)(C)C (centres undefined)	> 100	> 100	> 100	> 100	> 100	> 100	> 100	–	> 100	> 100	> 100
CCOC(=O)C1=C(O)c2ccc(OC)cc2C(=O)C1=O	> 100	> 100	> 100	–	–	> 100	> 100	> 100	> 100	> 100	–
O=C1CCc2ccccc2O1	–	> 100	> 100	> 100	> 100	> 100	> 100	> 100	> 100	> 100	> 100
O=C(NCCCc1cn[nH]c(=O)n1)c1cccc2nc3ccccc3nc12	> 100	> 100	> 100	> 100	> 100	> 100	> 100	–	> 100	–	> 100
NNC(=S)NN/C=C(\C=Nc1ccccc1)[N+](=O)[O-]	> 100	> 100	> 100	–	–	> 100	> 100	> 100	–	–	–
CN(C)CCNC(=O)c1cccc2[nH]c(-c3ccc(Cl)cc3)nc12	17.7	12.8	13.8	–	–	21.3	21.3	19.9	18	12.1	21
CC1(C)OC2OC(C(=O)c3ccccc3)C3OC(C)(C)OC3C2O1 (centres undefined)	–	> 100	> 100	> 100	> 100	> 100	> 100	> 100	> 100	> 100	> 100
Cc1cc2c(cc1-c1cc3c(cc1C)C(C(C)C)=C(O)C(=O)/C3=C\Nc1ccccn1)/C(=C/Nc1ccccn1)C(=O)C(O)=C2C(C)C	> 100	> 100	> 100	> 100	> 100	> 100	> 100	74.8	> 100	–	> 100
CCOC(=O)[C@H](CO)Nc1c(O)c2c(c(O)c1Cl)C(=O)C=CC2=O	> 10	> 10	> 10	> 10	> 10	> 10	> 10	> 10	> 10	–	> 10
O=C(CBr)NCCc1c[nH]c2ccccc12	–	1.91	2.79	4.49	3.34	2.41	28.6	0.458	3.53	3.2	6.96
